“And” between values parts separate entries of the source, which are not always exact repeats. Equal values may be shown once. Toxic doses and inconclusive results are not listed. The calls were made as follows: active = survival T/C of 150% or more; inactive = T/C below 125% in these data.
Tested on: CD2F1 mice, L1210 leukemia ip, survival T/C
Assay: NCI In Vivo Anticancer Drug Screen. Data for tumor model L1210 Leukemia (intraperitoneal) in CD2F1 (CDF1) mice
Conditions: higher = longer survival
How it was run: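 Vehicle-treated tumor-bearing mice served as controls (C) for compound-treated mice (T). Reported figure is T divided by C.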

Measured: T/C

OC(CBr)C(O)C(O)C(O)CBr (centres undefined)
active: endpoint: median survival time, dose: 120.0 mg/kg/injection, schedule: Q01DX005 (ip), vehicle: Klucel (hydroxypropylcellulose) (HPC) 151 % of control and 159 % of control and 163 % of control | endpoint: median survival time, dose: 180.0 mg/kg/injection, schedule: Q01DX005 (ip), vehicle: Klucel (hydroxypropylcellulose) (HPC) 155 % of control and 162 % of control and 164 % of control | endpoint: median survival time, dose: 200.0 mg/kg/injection, schedule: Q04DX003 (ip), vehicle: Klucel (hydroxypropylcellulose) (HPC) 151 % of control | endpoint: median survival time, dose: 300.0 mg/kg/injection, schedule: Q04DX003 (ip), vehicle: Klucel (hydroxypropylcellulose) (HPC) 155 % of control and 184 % of control and 197 % of control | endpoint: median survival time, dose: 400.0 mg/kg/injection, schedule: Q04DX003 (ip), vehicle: Klucel (hydroxypropylcellulose) (HPC) 195 % of control
inactive: endpoint: mean survival time, dose: 25.0 mg/kg/injection, schedule: Q01DX009 (oral), vehicle: other 109 % of control | endpoint: mean survival time, dose: 50.0 mg/kg/injection, schedule: Q01DX009 (oral), vehicle: other 112 % of control | endpoint: mean survival time, dose: 100.0 mg/kg/injection, schedule: Q01DX001 (ip), vehicle: saline 103 % of control | endpoint: mean survival time, dose: 100.0 mg/kg/injection, schedule: Q01DX009 (oral), vehicle: other 121 % of control | endpoint: mean survival time, dose: 100.0 mg/kg/injection, schedule: Q04DX003 (ip), vehicle: saline 101 % of control and 103 % of control | endpoint: mean survival time, dose: 200.0 mg/kg/injection, schedule: Q01DX001 (ip), vehicle: saline 101 % of control | endpoint: mean survival time, dose: 200.0 mg/kg/injection, schedule: Q04DX003 (ip), vehicle: Klucel (hydroxypropylcellulose) (HPC) 120 % of control | endpoint: mean survival time, dose: 200.0 mg/kg/injection, schedule: Q04DX003 (ip), vehicle: saline 108 % of control | endpoint: mean survival time, dose: 237.0 mg/kg/injection, schedule: Q04DX003 (ip), vehicle: saline with Tween-80 94 % of control | endpoint: mean survival time, dose: 355.55 mg/kg/injection, schedule: Q04DX003 (ip), vehicle: saline with Tween-80 89 % of control | endpoint: mean survival time, dose: 400.0 mg/kg/injection, schedule: Q01DX001 (ip), vehicle: saline 106 % of control | endpoint: mean survival time, dose: 400.0 mg/kg/injection, schedule: Q01DX009 (oral), vehicle: other 113 % of control | endpoint: mean survival time, dose: 400.0 mg/kg/injection, schedule: Q04DX003 (ip), vehicle: saline 101 % of control and 108 % of control | endpoint: mean survival time, dose: 533.33 mg/kg/injection, schedule: Q04DX003 (ip), vehicle: saline with Tween-80 99 % of control | endpoint: mean survival time, dose: 800.0 mg/kg/injection, schedule: Q04DX003 (ip), vehicle: saline with Tween-80 94 % of control | endpoint: mean survival time, dose: 800.0 mg/kg/injection, schedule: Q04DX003 (ip), vehicle: saline 116 % of control | endpoint: mean survival time, dose: 1200.0 mg/kg/injection, schedule: Q04DX003 (ip), vehicle: saline with Tween-80 98 % of control | endpoint: mean survival time, dose: 1200.0 mg/kg/injection, schedule: Q04DX003 (ip), vehicle: saline 114 % of control | endpoint: median survival time, dose: 8.0 mg/kg/injection, schedule: Q03HX024 (ip), vehicle: Klucel (hydroxypropylcellulose) (HPC) 103 % of control | endpoint: median survival time, dose: 16.0 mg/kg/injection, schedule: Q03HX008 (ip), vehicle: Klucel (hydroxypropylcellulose) (HPC) 108 % of control | endpoint: median survival time, dose: 16.0 mg/kg/injection, schedule: Q03HX016 (ip), vehicle: Klucel (hydroxypropylcellulose) (HPC) 105 % of control | endpoint: median survival time, dose: 16.0 mg/kg/injection, schedule: Q03HX024 (ip), vehicle: Klucel (hydroxypropylcellulose) (HPC) 106 % of control | endpoint: median survival time, dose: 32.0 mg/kg/injection, schedule: Q01DX009 (ip), vehicle: Klucel (hydroxypropylcellulose) (HPC) 104 % of control | endpoint: median survival time, dose: 32.0 mg/kg/injection, schedule: Q03HX008 (ip), vehicle: Klucel (hydroxypropylcellulose) (HPC) 115 % of control | endpoint: median survival time, dose: 32.0 mg/kg/injection, schedule: Q03HX016 (ip), vehicle: Klucel (hydroxypropylcellulose) (HPC) 103 % of control | endpoint: median survival time, dose: 32.0 mg/kg/injection, schedule: Q03HX024 (ip), vehicle: Klucel (hydroxypropylcellulose) (HPC) 109 % of control | endpoint: median survival time, dose: 64.0 mg/kg/injection, schedule: Q01DX009 (ip), vehicle: Klucel (hydroxypropylcellulose) (HPC) 105 % of control | endpoint: median survival time, dose: 64.0 mg/kg/injection, schedule: Q04DX003 (ip), vehicle: Klucel (hydroxypropylcellulose) (HPC) 109 % of control | endpoint: median survival time, dose: 128.0 mg/kg/injection, schedule: Q01DX001 (ip), vehicle: Klucel (hydroxypropylcellulose) (HPC) 108 % of control | endpoint: median survival time, dose: 128.0 mg/kg/injection, schedule: Q01DX009 (ip), vehicle: Klucel (hydroxypropylcellulose) (HPC) 86 % of control | endpoint: median survival time, dose: 128.0 mg/kg/injection, schedule: Q04DX003 (ip), vehicle: Klucel (hydroxypropylcellulose) (HPC) 122 % of control | endpoint: median survival time, dose: 128.0 mg/kg/injection, schedule: Q08DX002 (ip), vehicle: Klucel (hydroxypropylcellulose) (HPC) 109 % of control | endpoint: median survival time, dose: 256.0 mg/kg/injection, schedule: Q01DX001 (ip), vehicle: Klucel (hydroxypropylcellulose) (HPC) 112 % of control | endpoint: median survival time, dose: 256.0 mg/kg/injection, schedule: Q04DX003 (ip), vehicle: Klucel (hydroxypropylcellulose) (HPC) 109 % of control | endpoint: median survival time, dose: 256.0 mg/kg/injection, schedule: Q08DX002 (ip), vehicle: Klucel (hydroxypropylcellulose) (HPC) 114 % of control | endpoint: median survival time, dose: 270.0 mg/kg/injection, schedule: Q01DX005 (ip), vehicle: Klucel (hydroxypropylcellulose) (HPC) 100 % of control | endpoint: median survival time, dose: 512.0 mg/kg/injection, schedule: Q01DX001 (ip), vehicle: Klucel (hydroxypropylcellulose) (HPC) 95 % of control | endpoint: median survival time, dose: 512.0 mg/kg/injection, schedule: Q04DX003 (ip), vehicle: Klucel (hydroxypropylcellulose) (HPC) 112 % of control | endpoint: median survival time, dose: 512.0 mg/kg/injection, schedule: Q08DX002 (ip), vehicle: Klucel (hydroxypropylcellulose) (HPC) 122 % of control
